Source: publication PMC8286840, “Identifying SARS-CoV-2 antiviral compounds by screening for small molecule inhibitors of Nsp3 papain-like protease” (Biochemical Journal, 2021)
Counter-ions that a name gives are not always drawn. Like-named read-outs stand apart in the source and are kept apart here.

Assays:
[1] = biological target: T1, SARS-CoV-2 PLpro (nsp3 1564–1878) (Severe acute respiratory syndrome coronavirus 2, UniProt P0DTD1); test: biochemical; design: FRET-quenched peptide (Pro3) cleavage by PLpro, 10 min pre-incubation, slope over 20 min, normalised to no-compound control; conditions: high concentration screen, read-out: % of control remaining
[2] = biological target: T1, SARS-CoV-2 PLpro (nsp3 1564–1878); test: biochemical; design: FRET-quenched peptide (Pro3) cleavage by PLpro, 10 min pre-incubation, slope over 20 min, normalised to no-compound control; conditions: low concentration screen, read-out: % of control remaining

C=CCc1ccccc1OCC(O)CNC(C)C (stereo not drawn) [Alprenolol hydrochloride] was tested. Which remaining activity at 3.75 µM ([1]; Well no.=342) did it give?
The remaining activity at 3.75 µM was 97.7%.

And the remaining activity at 1.25 µM ([2]; Well no.=342)?
The remaining activity at 1.25 µM was 95.5%.

What does the source list for O=C(Nc1ccncc1)c1cc([N+](=O)[O-])ccc1Cl [T0070907]?
remaining activity at 3.75 µM ([1]; Well no.=4833): 106%; remaining activity at 1.25 µM ([2]; Well no.=4833): 103%

Which results are given for Cc1cc(OCCCc2c3n(c4c(-c5c(C)nn(C)c5C)c(Cl)ccc24)[C@H](C)CN(c2cn(C)c4ccc(C(=O)O)cc24)C3=O)cc(C)c1Cl [VU0661013]?
remaining activity at 3.75 µM ([1]; Well no.=7066): 98.3%; remaining activity at 1.25 µM ([2]; Well no.=7066): 105%

With CC[C@H]1OC(=O)[C@H](C)[C@@H](O[C@H]2C[C@@](C)(OC)[C@@H](O)[C@H](C)O2)[C@H](C)[C@@H](O[C@@H]2O[C@H](C)C[C@H](N(C)C)[C@H]2O)[C@](C)(O)C[C@@H](C)/C(=N\OCOCCOC)[C@H](C)[C@@H](O)[C@]1(C)O [Roxithromycin] as the compound, how does the remaining activity at 3.75 µM ([1]; Well no.=2237) read?
The remaining activity at 3.75 µM was 102%.

And the remaining activity at 1.25 µM ([2]; Well no.=2237)?
Its remaining activity at 1.25 µM is 101%.

How did the remaining activity at 3.75 µM ([1]; Well no.=1168) turn out when NCCCCNCCCN [Spermidine trihydrochloride] was run?
The remaining activity at 3.75 µM was 104%.

And the remaining activity at 1.25 µM ([2]; Well no.=1168)?
The remaining activity at 1.25 µM was 102%.

CCCC(CCC)C(=O)O [Valproic acid] was tested. Which remaining activity at 3.75 µM ([1]; Well no.=1758) did it give?
Its remaining activity at 3.75 µM is 100%.

And the remaining activity at 1.25 µM ([2]; Well no.=1758)?
The remaining activity at 1.25 µM was 98.8%.

Which results are given for Cc1ccccc1CNc1ncnc2c1ncn2[C@@H]1O[C@H](CO)[C@@H](O)[C@H]1O [Metrifudil]?
remaining activity at 3.75 µM ([1]; Well no.=851): 96.8%; remaining activity at 1.25 µM ([2]; Well no.=851): 95.7%

Which remaining activity at 3.75 µM ([1]; Well no.=3727) does the source give for CN1[C@@H]2CC[C@H]1C[C@@H](OC(=O)[C@H](CO)c1ccccc1)C2 [Hyoscyamine] here?
Its remaining activity at 3.75 µM is 101%.

And the remaining activity at 1.25 µM ([2]; Well no.=3727)?
The remaining activity at 1.25 µM was 94.8%.

For Cc1ccc(Cl)c(Nc2ccccc2C(=O)O)c1Cl [Meclofenamic acid sodium], which remaining activity at 3.75 µM ([1]; Well no.=784) is on record?
Its remaining activity at 3.75 µM is 103%.

What about the remaining activity at 1.25 µM ([2]; Well no.=784) of the same compound?
Its remaining activity at 1.25 µM is 103%.

For CC[C@@H](CO)NCCN[C@@H](CC)CO [Ethambutol HCl], which remaining activity at 3.75 µM ([1]; Well no.=5072) is on record?
Its remaining activity at 3.75 µM is 100%.

And the remaining activity at 1.25 µM ([2]; Well no.=5072)?
The remaining activity at 1.25 µM was 99.5%.

With CCc1cncnc1N1CCN(Cc2nc3ccc(C(F)(F)F)cc3[nH]2)CC1 [PF-4708671] as the compound, how does the remaining activity at 3.75 µM ([1]; Well no.=4804) read?
The remaining activity at 3.75 µM was 94.4%.

And the remaining activity at 1.25 µM ([2]; Well no.=4804)?
Its remaining activity at 1.25 µM is 97%.

Which remaining activity at 3.75 µM ([1]; Well no.=612) does the source give for Cc1nccc2c1[nH]c1ccccc12 [Harmane] here?
The remaining activity at 3.75 µM was 92%.

What about the remaining activity at 3.75 µM ([1]; Well no.=3593) of the same compound?
The remaining activity at 3.75 µM was 102%.

What about the remaining activity at 1.25 µM ([2]; Well no.=612) of the same compound?
The remaining activity at 1.25 µM was 98.8%.

And the remaining activity at 1.25 µM ([2]; Well no.=3593)?
Its remaining activity at 1.25 µM is 101%.

CC[C@H](C(=O)N1CCCC[C@H]1C(=O)O[C@H](CCc1ccc(OC)c(OC)c1)c1cccc(OCC(=O)NCCNC(=O)COc2cccc([C@@H](CCc3ccc(OC)c(OC)c3)OC(=O)[C@@H]3CCCCN3C(=O)[C@@H](CC)c3cc(OC)c(OC)c(OC)c3)c2)c1)c1cc(OC)c(OC)c(OC)c1 [Rimiducid] was tested. Which remaining activity at 3.75 µM ([1]; Well no.=7156) did it give?
Its remaining activity at 3.75 µM is 91.8%.

And the remaining activity at 3.75 µM ([1]; Well no.=8596)?
Its remaining activity at 3.75 µM is 89.6%.

And the remaining activity at 1.25 µM ([2]; Well no.=7156)?
Its remaining activity at 1.25 µM is 94.6%.

And the remaining activity at 1.25 µM ([2]; Well no.=8596)?
The remaining activity at 1.25 µM was 96.4%.

Which results are given for COc1cc2nc(N3CCN(C(=O)c4ccco4)CC3)nc(N)c2cc1OC [Prazosin.HCl]?
remaining activity at 3.75 µM ([1]; Well no.=1689): 100%; remaining activity at 1.25 µM ([2]; Well no.=1689): 103%

For COC(=O)/C=C/c1cccc(N(Cc2ccc(-c3ccc(N(C)C)cc3)cc2)C(=O)C2CCCCC2)c1 [Fexaramine], which remaining activity at 3.75 µM ([1]; Well no.=5559) is on record?
The remaining activity at 3.75 µM was 104%.

And the remaining activity at 1.25 µM ([2]; Well no.=5559)?
The remaining activity at 1.25 µM was 97.4%.

Which remaining activity at 3.75 µM ([1]; Well no.=8814) does the source give for Cc1cc([N+](=O)[O-])ccc1NS(=O)(=O)c1cc(Cl)ccc1Cl [FH535] here?
Its remaining activity at 3.75 µM is 98.3%.

What about the remaining activity at 1.25 µM ([2]; Well no.=8814) of the same compound?
The remaining activity at 1.25 µM was 96.3%.

What does the source list for C#CCN(C)Cc1ccccc1 [Pargyline hydrochloride]?
remaining activity at 3.75 µM ([1]; Well no.=1445): 98.9%; remaining activity at 1.25 µM ([2]; Well no.=1445): 99.1%

What does the source list for Cc1ccc(S(=O)(=O)n2c(N)nc3ccccc32)cc1 [ML130]?
remaining activity at 3.75 µM ([1]; Well no.=4829): 101%; remaining activity at 1.25 µM ([2]; Well no.=4829): 101%

Which remaining activity at 3.75 µM ([1]; Well no.=5825) does the source give for O=C(O)Cc1nn(Cc2nc3cc(C(F)(F)F)ccc3s2)c(=O)c2ccccc12 [Zopolrestat] here?
Its remaining activity at 3.75 µM is 98.9%.

What about the remaining activity at 1.25 µM ([2]; Well no.=5825) of the same compound?
The remaining activity at 1.25 µM was 98.5%.

COc1ccc(-c2cc(=O)c3ccc(O)cc3o2)cc1 [Pratol] was tested. Which remaining activity at 3.75 µM ([1]; Well no.=3829) did it give?
Its remaining activity at 3.75 µM is 96.6%.

What about the remaining activity at 1.25 µM ([2]; Well no.=3829) of the same compound?
Its remaining activity at 1.25 µM is 97.5%.

How did the remaining activity at 3.75 µM ([1]; Well no.=6809) turn out when CCCN(CCc1cccs1)C1CCc2c(O)cccc2C1 (racemic) [rac-Rotigotine (Hydrochloride)] was run?
Its remaining activity at 3.75 µM is 95.7%.

What about the remaining activity at 1.25 µM ([2]; Well no.=6809) of the same compound?
The remaining activity at 1.25 µM was 98.8%.

Which remaining activity at 3.75 µM ([1]; Well no.=7163) does the source give for CN1C(=O)CC[C@H]1c1cccnc1 [Cotinine] here?
Its remaining activity at 3.75 µM is 96.3%.

And the remaining activity at 1.25 µM ([2]; Well no.=7163)?
The remaining activity at 1.25 µM was 97.7%.

Which remaining activity at 3.75 µM ([1]; Well no.=7461) does the source give for O=C(O)c1ccc(C(=O)O)o1 [2,5-Furandicarboxylic acid] here?
The remaining activity at 3.75 µM was 91.7%.

And the remaining activity at 1.25 µM ([2]; Well no.=7461)?
The remaining activity at 1.25 µM was 98%.

How did the remaining activity at 3.75 µM ([1]; Well no.=728) turn out when COc1cccc2c1C(=O)c1c(O)c3c(c(O)c1C2=O)C[C@@](O)(C(C)=O)C[C@@H]3O[C@H]1C[C@H](N)[C@H](O)[C@H](C)O1 [Daunorubicin hydrochloride] was run?
The remaining activity at 3.75 µM was 94.8%.

What about the remaining activity at 1.25 µM ([2]; Well no.=728) of the same compound?
Its remaining activity at 1.25 µM is 94%.

Which results are given for C[C@@H](NCCCc1cccc(C(F)(F)F)c1)c1cccc2ccccc12 [Cinacalcet (hydrochloride)]?
remaining activity at 3.75 µM ([1]; Well no.=7426): 104%; remaining activity at 1.25 µM ([2]; Well no.=7426): 104%

Which results are given for CNS(=O)(=O)Cc1ccc2[nH]cc(CCN(C)C)c2c1 [Sumatriptan (succinate)]?
remaining activity at 3.75 µM ([1]; Well no.=6379): 91%; remaining activity at 1.25 µM ([2]; Well no.=6379): 104%

CN1CCN2c3ccccc3Cc3ccccc3C2C1 (stereo not drawn) [Mianserin (hydrochloride)] was tested. Which remaining activity at 3.75 µM ([1]; Well no.=7477) did it give?
The remaining activity at 3.75 µM was 96.9%.

What about the remaining activity at 1.25 µM ([2]; Well no.=7477) of the same compound?
Its remaining activity at 1.25 µM is 105%.

How did the remaining activity at 3.75 µM ([1]; Well no.=1133) turn out when C[C@]12N[C@H](Cc3ccccc31)c1ccccc12 [(+)-MK-801 hydrogen maleate] was run?
The remaining activity at 3.75 µM was 92.1%.

What about the remaining activity at 1.25 µM ([2]; Well no.=1133) of the same compound?
The remaining activity at 1.25 µM was 98.4%.

With N[C@H](C(=O)O)[C@H](O)C(=O)O (racemic) [DL-threo-beta-hydroxyaspartic acid] as the compound, how does the remaining activity at 3.75 µM ([1]; Well no.=418) read?
Its remaining activity at 3.75 µM is 95.6%.

What about the remaining activity at 1.25 µM ([2]; Well no.=418) of the same compound?
Its remaining activity at 1.25 µM is 96.9%.

Which results are given for CC[N+](CC)(CC)CCOc1cccc(OCC[N+](CC)(CC)CC)c1OCC[N+](CC)(CC)CC [Gallamine triethiodide]?
remaining activity at 3.75 µM ([1]; Well no.=717): 87.8%; remaining activity at 3.75 µM ([1]; Well no.=6753): 103%; remaining activity at 1.25 µM ([2]; Well no.=717): 91.1%; remaining activity at 1.25 µM ([2]; Well no.=6753): 105%

What does the source list for CCOC(=O)[C@@H](N)CCC(=O)N[C@@H](CSCc1ccccc1)C(=O)N[C@@H](C(=O)OCC)c1ccccc1 [Ezatiostat]?
remaining activity at 3.75 µM ([1]; Well no.=8366): 90.3%; remaining activity at 1.25 µM ([2]; Well no.=8366): 91%

CCCC[C@@H](C)[C@@H](OC(=O)C[C@@H](CC(=O)O)C(=O)O)[C@H](C[C@@H](C)CCCCCC[C@@H](O)C[C@H](O)[C@H](C)N)OC(=O)C[C@@H](CC(=O)O)C(=O)O [Fumonisin B2] was tested. Which remaining activity at 3.75 µM ([1]; Well no.=3285) did it give?
Its remaining activity at 3.75 µM is 95.7%.

What about the remaining activity at 1.25 µM ([2]; Well no.=3285) of the same compound?
The remaining activity at 1.25 µM was 95.4%.

How did the remaining activity at 3.75 µM ([1]; Well no.=7283) turn out when Cc1nc(C#Cc2cccnc2)cs1 [MTEP (hydrochloride)] was run?
The remaining activity at 3.75 µM was 94.9%.

What about the remaining activity at 1.25 µM ([2]; Well no.=7283) of the same compound?
The remaining activity at 1.25 µM was 92.5%.
